According to PubChem BioAssay (NCI):
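A five-concentration, 48-hour dose response in 96-well plates underlies each endpoint, interpolated linearly between surrounding concentrations. GI50 is the concentration that inhibits growth by half. TGI: total growth inhibition.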

Key:
Assay in all cases: NCI tumour cell line growth inhibition, 48 h
786-0 renal = system: 786-0 renal
A498 renal = system: A498 renal
A549 NSCLC = system: A549 NSCLC
ACHN renal = system: ACHN renal
CAKI-1 renal = system: CAKI-1 renal
CCRF-CEM leukemia = system: CCRF-CEM leukemia
COLO 205 colon = system: COLO 205 colon
DU-145 prostate = system: DU-145 prostate
EKVX NSCLC = system: EKVX NSCLC
HCC-2998 colon = system: HCC-2998 colon
HCT-116 colon = system: HCT-116 colon
HCT-15 colon = system: HCT-15 colon
HL-60(TB) leukemia = system: HL-60(TB) leukemia
HOP-62 NSCLC = system: HOP-62 NSCLC
HOP-92 NSCLC = system: HOP-92 NSCLC
HS 578T breast = system: HS 578T breast
IGROV1 ovarian = system: IGROV1 ovarian
K-562 leukemia = system: K-562 leukemia
KM12 colon = system: KM12 colon
LOX IMVI melanoma = system: LOX IMVI melanoma
M14 melanoma = system: M14 melanoma
MALME-3M melanoma = system: MALME-3M melanoma
MCF7 breast = system: MCF7 breast
MDA-MB-231 breast = system: MDA-MB-231 breast
MDA-MB-435 = system: MDA-MB-435
MOLT-4 leukemia = system: MOLT-4 leukemia
NCI-H226 lung = system: NCI-H226 lung
NCI-H23 lung = system: NCI-H23 lung
NCI-H460 lung = system: NCI-H460 lung
NCI/ADR-RES ovarian = system: NCI/ADR-RES ovarian
OVCAR-3 ovarian = system: OVCAR-3 ovarian
OVCAR-4 ovarian = system: OVCAR-4 ovarian
OVCAR-5 ovarian = system: OVCAR-5 ovarian
OVCAR-8 ovarian = system: OVCAR-8 ovarian
PC-3 prostate = system: PC-3 prostate
RPMI-8226 leukemia = system: RPMI-8226 leukemia
RXF 393 renal = system: RXF 393 renal
SF-268 CNS = system: SF-268 CNS
SF-295 CNS = system: SF-295 CNS
SF-539 CNS = system: SF-539 CNS
SK-MEL-28 melanoma = system: SK-MEL-28 melanoma
SK-MEL-5 melanoma = system: SK-MEL-5 melanoma
SK-OV-3 ovarian = system: SK-OV-3 ovarian
SNB-19 CNS = system: SNB-19 CNS
SNB-75 CNS = system: SNB-75 CNS
SR leukemia = system: SR leukemia
SW-620 colon = system: SW-620 colon
U251 CNS = system: U251 CNS
UACC-257 melanoma = system: UACC-257 melanoma
UACC-62 melanoma = system: UACC-62 melanoma
UO-31 renal = system: UO-31 renal
BT-549 breast = system: BT-549 breast
HT29 colon = system: HT29 colon
NCI-H522 lung = system: NCI-H522 lung
SK-MEL-2 melanoma = system: SK-MEL-2 melanoma
SN12C renal = system: SN12C renal
T-47D breast = system: T-47D breast
TK-10 renal = system: TK-10 renal

## COc1cc(/C=C/[N+](=O)[O-])c([N+](=O)[O-])cc1OC
786-0 renal
  GI50: 1610 nM
  TGI: 2950 nM
A498 renal
  GI50: 3030 nM
  TGI: 11900 nM
A549 NSCLC
  GI50: 3380 nM
  TGI: 10300 nM
ACHN renal
  GI50: 1560 nM
  TGI: 2900 nM
CAKI-1 renal
  GI50: 1700 nM
  TGI: 7170 nM
CCRF-CEM leukemia
  GI50: 2130 nM
  TGI: 6070 nM
COLO 205 colon
  GI50: 1160 nM
  TGI: 2430 nM
DU-145 prostate
  GI50: 1580 nM
  TGI: 2930 nM
EKVX NSCLC
  GI50: 8980 nM
  TGI: 22600 nM
HCC-2998 colon
  GI50: 1730 nM
  TGI: 3220 nM
HCT-116 colon
  GI50: 977 nM
  TGI: 2140 nM
HCT-15 colon
  GI50: 1330 nM
  TGI: 4490 nM
HL-60(TB) leukemia
  GI50: 1320 nM
  TGI: 5710 nM
HOP-62 NSCLC
  GI50: 2910 nM
  TGI: 8740 nM
HOP-92 NSCLC
  GI50: 2050 nM
  TGI: 4270 nM
HS 578T breast
  GI50: 1880 nM
  TGI: 7450 nM
IGROV1 ovarian
  GI50: 2550 nM
  TGI: 11900 nM
K-562 leukemia
  GI50: 1640 nM
  TGI: > 100000 nM
KM12 colon
  GI50: 1930 nM
  TGI: 3920 nM
LOX IMVI melanoma
  GI50: 1680 nM
  TGI: 3050 nM
M14 melanoma
  GI50: 1600 nM
  TGI: 2980 nM
MALME-3M melanoma
  GI50: 1710 nM
  TGI: 3380 nM
MCF7 breast
  GI50: 1120 nM
  TGI: 2730 nM
MDA-MB-231 breast
  GI50: 1700 nM
  TGI: 3460 nM
MDA-MB-435
  GI50: 2170 nM
  TGI: 7510 nM
MOLT-4 leukemia
  GI50: 2210 nM
  TGI: 9110 nM
NCI-H226 lung
  GI50: 2630 nM
  TGI: 7680 nM
NCI-H23 lung
  GI50: 2120 nM
  TGI: 4940 nM
NCI-H460 lung
  GI50: 2330 nM
  TGI: 5670 nM
NCI/ADR-RES ovarian
  GI50: 2850 nM
  TGI: 10100 nM
OVCAR-3 ovarian
  GI50: 1300 nM
  TGI: 2570 nM
OVCAR-4 ovarian
  GI50: 1570 nM
  TGI: 2930 nM
OVCAR-5 ovarian
  GI50: 1980 nM
  TGI: 3980 nM
OVCAR-8 ovarian
  GI50: 2500 nM
  TGI: 9460 nM
PC-3 prostate
  GI50: 2300 nM
  TGI: 5700 nM
RPMI-8226 leukemia
  GI50: 2530 nM
  TGI: 5740 nM
RXF 393 renal
  GI50: 1380 nM
  TGI: 2670 nM
SF-268 CNS
  GI50: 2710 nM
  TGI: 11300 nM
SF-295 CNS
  GI50: 6720 nM
  TGI: 22100 nM
SF-539 CNS
  GI50: 3270 nM
  TGI: 84700 nM
SK-MEL-28 melanoma
  GI50: 2060 nM
  TGI: 4720 nM
SK-MEL-5 melanoma
  GI50: 3390 nM
  TGI: 12300 nM
SK-OV-3 ovarian
  GI50: 12800 nM
  TGI: 25400 nM
SNB-19 CNS
  GI50: 6000 nM
  TGI: 19800 nM
SNB-75 CNS
  GI50: 2250 nM
  TGI: 7560 nM
SR leukemia
  GI50: 1600 nM
  TGI: 8240 nM
SW-620 colon
  GI50: 785 nM
  TGI: 2260 nM
U251 CNS
  GI50: 1920 nM
  TGI: 5350 nM
UACC-257 melanoma
  GI50: 2910 nM
  TGI: 11900 nM
UACC-62 melanoma
  GI50: 2340 nM
  TGI: 7140 nM
UO-31 renal
  GI50: 1360 nM
  TGI: 2810 nM

## N#Cc1cc(-c2ccnc(Nc3ccc(NC(=O)CCl)cc3)n2)ccc1N1CCCC1
786-0 renal
  GI50: 649 nM
  TGI: 6140 nM
A498 renal
  GI50: 3880 nM
  TGI: 9920 nM
A549 NSCLC
  GI50: 5270 nM
  TGI: 14700 nM
ACHN renal
  GI50: 1860 nM
  TGI: 6600 nM
BT-549 breast
  GI50: 708 nM
  TGI: 2250 nM
CAKI-1 renal
  GI50: 875 nM
  TGI: 6770 nM
CCRF-CEM leukemia
  GI50: 738 nM
  TGI: > 25000 nM
COLO 205 colon
  GI50: 2870 nM
  TGI: 7170 nM
DU-145 prostate
  GI50: 4170 nM
  TGI: 16500 nM
EKVX NSCLC
  GI50: 22600 nM
  TGI: > 25000 nM
HCC-2998 colon
  GI50: 4960 nM
  TGI: 9140 nM
HCT-116 colon
  GI50: 684 nM
  TGI: 1880 nM
HCT-15 colon
  GI50: 734 nM
  TGI: 3000 nM
HL-60(TB) leukemia
  GI50: 5100 nM
  TGI: > 25000 nM
HOP-62 NSCLC
  GI50: 4640 nM
  TGI: 18800 nM
HOP-92 NSCLC
  GI50: 4220 nM
  TGI: > 25000 nM
HS 578T breast
  GI50: 2220 nM
  TGI: > 25000 nM
HT29 colon
  GI50: 680 nM
  TGI: 4800 nM
IGROV1 ovarian
  GI50: 514 nM
  TGI: 1180 nM
K-562 leukemia
  GI50: 711 nM
  TGI: > 25000 nM
KM12 colon
  GI50: 3840 nM
  TGI: 10200 nM
LOX IMVI melanoma
  GI50: 450 nM
  TGI: 865 nM
M14 melanoma
  GI50: 646 nM
  TGI: 1490 nM
MALME-3M melanoma
  GI50: 1470 nM
  TGI: 6050 nM
MCF7 breast
  GI50: 809 nM
  TGI: 3640 nM
MDA-MB-231 breast
  GI50: 2820 nM
  TGI: 10100 nM
MDA-MB-435
  GI50: 716 nM
  TGI: 2700 nM
MOLT-4 leukemia
  GI50: 2420 nM
  TGI: > 25000 nM
NCI-H226 lung
  GI50: 723 nM
  TGI: 1660 nM
NCI-H23 lung
  GI50: 878 nM
  TGI: 3720 nM
NCI-H460 lung
  GI50: 2040 nM
  TGI: 6400 nM
NCI-H522 lung
  GI50: 378 nM
  TGI: 831 nM
NCI/ADR-RES ovarian
  GI50: 1140 nM
  TGI: > 25000 nM
OVCAR-3 ovarian
  GI50: 2900 nM
  TGI: 7590 nM
OVCAR-4 ovarian
  GI50: 3490 nM
  TGI: 10500 nM
OVCAR-5 ovarian
  GI50: 5400 nM
  TGI: 12700 nM
OVCAR-8 ovarian
  GI50: 1150 nM
  TGI: > 25000 nM
PC-3 prostate
  GI50: 2680 nM
  TGI: 13900 nM
RPMI-8226 leukemia
  GI50: 1700 nM
  TGI: 22700 nM
RXF 393 renal
  GI50: 779 nM
  TGI: 2690 nM
SF-268 CNS
  GI50: 1380 nM
  TGI: 9400 nM
SF-295 CNS
  GI50: 5110 nM
  TGI: 13900 nM
SF-539 CNS
  GI50: 2810 nM
  TGI: 5900 nM
SK-MEL-2 melanoma
  GI50: 933 nM
  TGI: 2920 nM
SK-MEL-28 melanoma
  GI50: 4280 nM
  TGI: 8540 nM
SK-MEL-5 melanoma
  GI50: 1080 nM
  TGI: 3720 nM
SK-OV-3 ovarian
  GI50: 2900 nM
  TGI: 6970 nM
SN12C renal
  GI50: 818 nM
  TGI: 4590 nM
SNB-19 CNS
  GI50: 4870 nM
  TGI: 16700 nM
SNB-75 CNS
  GI50: 1120 nM
  TGI: 7720 nM
SW-620 colon
  GI50: 815 nM
  TGI: 2630 nM
T-47D breast
  GI50: 5100 nM
  TGI: 11000 nM
TK-10 renal
  GI50: 894 nM
  TGI: 3480 nM
U251 CNS
  GI50: 3350 nM
  TGI: 8090 nM
UACC-257 melanoma
  GI50: 5040 nM
  TGI: 11600 nM
UACC-62 melanoma
  GI50: 2220 nM
  TGI: 5990 nM
UO-31 renal
  GI50: 1070 nM
  TGI: 4290 nM
